A short description of this series: Human HepG2 cell viability assay in 384 well format. Type of series: toxicity, cell-based. Further details: dose 125 nL, time 70.5 hour; cytotoxicity at 70.5 h: concentration not given beside the values. The note with it: HepG2 cells, read-out: Inhibition.
`c1coc(CN2CCC3(CC2)COC(COCC2CCOCC2)C3)c1` (stereo not drawn): the cytotoxicity at 70.5 h was -12.1%.

`CC(C)CCC1=NC2(CCN(C(=O)N3CCN(C)CC3)CC2)C(=O)N1`: the cytotoxicity at 70.5 h is 2.1%.

For `Cn1ncc2c1CCCC2NCc1cccc(C(F)(F)F)c1` (stereo not drawn), the cytotoxicity at 70.5 h is -5.81%. As to `O=C(Cn1ccnc1)N(CCO)CCSc1ccc(Cl)cc1`, the cytotoxicity at 70.5 h was -8.84%. Take `COCC1CC2(CCN(Cc3ccncc3)CC2)CN1C(C)C` (stereo not drawn): the cytotoxicity at 70.5 h is -7.56%. Regarding `Cc1cccc(-c2noc(CN3CCC(N4CCNC4=O)CC3)n2)c1`, the cytotoxicity at 70.5 h is -0.858%. Take `CCOCC(=O)N1CCCn2c(nnc2Cn2cccc2)C1`: the cytotoxicity at 70.5 h stood at 3.11%.

`NC(=O)C1CCN(C(=O)NC2CCc3cc(F)ccc32)CC1` (stereo not drawn): the cytotoxicity at 70.5 h came to 2.63%. In the case of `Cc1ccc(CN2CC[C@@H]3[C@@H](CO[C@H]3CN(C)C)C2)o1`, the cytotoxicity at 70.5 h was -5.5%.

Consider `COCCN1CCCC2(CCN(c3nccc4ccccc34)C2)C1=O` (stereo not drawn), for which the cytotoxicity at 70.5 h was found to be 11.2%. As to `Cc1nc(CC(=O)NS(=O)(=O)c2cccc3cnccc23)cs1`, the cytotoxicity at 70.5 h was -110%. Take `Cc1nn(C)c(N2CCCN(C)CC2)c1CNC(=O)CCC(C)C`: the cytotoxicity at 70.5 h is -1.98%. In the case of `Cc1ccc2nnc(C(=O)NCC3CCCC3)nc2c1`, the cytotoxicity at 70.5 h is -0.847%. The result for `O=S(=O)(Cc1cccc(F)c1)Nc1cc(Cl)ccn1` reads 2.91%. Next, `CCn1nc2c(cc1=O)CN(Cc1cc(C)on1)CC2`: -3.67%; `NC(=O)C1(CCCc2ccccn2)CCCN(c2ncccn2)C1` (stereo not drawn): -2.53%; `COCCOc1ccc(S(=O)(=O)Nc2cccc(O)c2F)cc1C`: -7.45%. On to `COc1ccc(CN2C[C@H]3CN(c4ccsc4)C(=O)[C@H]3C2)cc1`, for which the cytotoxicity at 70.5 h was -20.7%. As for `Cc1nc(CN(CCc2ccccc2)C2CCN(C)CC2)no1`, the cytotoxicity at 70.5 h is -10.3%. Next, `CC(=O)N1CCC(n2ccc(-c3cnc(N4CCOCC4)nc3)n2)CC1`: -5.97%; `CN(C)c1ccc(C(=O)N2C[C@@H](CN3CCCCC3)[C@@H](CO)C2)cc1`: -4.9%. Next, `COc1c(CNCCNC(=O)c2ccc(C)c(F)c2)c(C)nn1C`: -4.84%.

In the case of `COc1cc(N2CCC3(CCCN(C(=O)c4cccnc4)C3)C2)ncn1` (stereo not drawn), the cytotoxicity at 70.5 h came to 16.7%. Next, `Cc1ccc(CCN[C@@H]2c3ccccc3C3(CCNCC3)[C@H]2O)s1`: -2.07%. Next, `Cn1ncc2c1C(COCC1CC1)CN(Cc1nccs1)C2` (stereo not drawn): 6.16%; `CC(=O)NC1CCCN(C(=O)NCc2cccnc2-n2cccn2)C1` (stereo not drawn): 3.84%.

For `O=C(N1CCOCC1)[C@@]12CCO[C@@H]1CCN(CC1CCCCC1)C2`, the cytotoxicity at 70.5 h worked out at 27.8%. On to `CCCc1nc(N2CCC(C)CC2)c2c(n1)c(C)nn2CC`, for which the cytotoxicity at 70.5 h is -10.6%.

Turning to `CC(=O)N1CCCN(C(=O)NCc2cc[nH]n2)CC1`, the cytotoxicity at 70.5 h was 44.8%.

In the case of `CCn1cnc(NC(=O)NCC2CCS(=O)(=O)CC2)n1`, the cytotoxicity at 70.5 h was -19.4%. Next, `CCC1(C(=O)O)CCCN(C(=O)c2ccc(O)c(Cl)c2)C1` (stereo not drawn): -4.39%. Next, `CN(C)Cc1cnc(C2CCN(C(=O)c3cc(F)cc(F)c3)C2)[nH]1` (stereo not drawn): -2.53%; `Cc1ccnc(NS(=O)(=O)c2cc(C(N)=O)n(C)c2)c1`: 0.984%; `Cc1nc(C2CCCN2Cc2nccn2CC(F)(F)F)no1` (stereo not drawn): -2.36%. Next, `Cc1ccc(CN2CCOC3(COCCN(C(C)C)C3)C2)o1` (stereo not drawn): -12.3%; `CC(C)C(=O)N1CCC12CCCN(C(=O)c1ccnnc1)C2` (stereo not drawn): -6.79%; `CC(C)N(C)Cc1ncn2c1CN(C(=O)C1CCCO1)CCC2` (stereo not drawn): -0.921%. Take `O=S(=O)(C1CC1)N1CCOC2(CCCN(c3cccc(F)c3)C2)C1` (stereo not drawn): the cytotoxicity at 70.5 h was -3.57%. On to `COc1ccc(CC(=O)N2CCCC(n3cc(C)cn3)C2)c(OC)c1` (stereo not drawn), for which the cytotoxicity at 70.5 h is -6.34%.

Turning to `CCN(Cc1ccc2c(c1)OCO2)Cc1nc(C)no1`, the cytotoxicity at 70.5 h is -20.4%.

In the case of `Cc1cc(C)n(CCN(C)c2ccc(-c3nc(C4CC4)no3)cn2)n1`, the cytotoxicity at 70.5 h turned out to be 10.5%. With `Cc1cc(C)n(CCNCc2cc(-c3ccc(F)cc3)c[nH]c2=O)n1`, the cytotoxicity at 70.5 h came to 1.4%.

For `COc1c(CNCCC(=O)Nc2cccc(C)n2)c(C)nn1C`, the cytotoxicity at 70.5 h is -1.12%. Next, `CCC(CO)N(Cc1ccsc1)Cc1c(C)nn(C)c1Cl` (stereo not drawn): -5.33%; `CCNc1nc(C)c(C(=O)N2CCC(C(O)Cc3ccccc3)CC2)s1` (stereo not drawn): -14.6%; `COc1ccccc1CCN1CCCC(CN(C)Cc2cc(C)n[nH]2)C1` (stereo not drawn): -8.68%. As to `CCCN(C(=O)c1ccc(-n2ccnn2)cc1)c1cccnc1`, the cytotoxicity at 70.5 h is -3.08%. The result for `N#Cc1cccc(N2CCCC3(C2)CN(c2ncc(F)cn2)CCO3)n1` (stereo not drawn) reads 1.87%; that for `CCN(CC(F)(F)F)C(=O)C1CCCN(Cc2cscn2)C1` (stereo not drawn), 26.1%; that for `CCOc1ncccc1CNC(=O)c1cc(C)on1`, -8.59%. Next, `COCCCC1CCCCN1Cc1cc(F)ccc1-n1cccn1` (stereo not drawn): 9.72%; `CC(=O)NCC1CCN(c2cc(C)nc(-c3ccncc3)n2)CC1`: -10.9%. Next, `Cc1cc(C(=O)N2CCCC(c3nccn3C)C2)cc(S(N)(=O)=O)c1C` (stereo not drawn): -5.68%.

Take `CCOC(=O)CNC(=O)c1cccnc1Sc1cc(OC)ccc1OC`: the cytotoxicity at 70.5 h stood at 11.1%. On to `O=C(CCC1CCCO1)NCc1ccnc(-n2cccn2)c1` (stereo not drawn), for which the cytotoxicity at 70.5 h was 23.5%. The result for `c1csc(-c2noc(CN3CCc4c(ncn4C4CC4)C3)n2)c1` reads -14.5%; that for `CCc1nc(CN(C)C(=O)C2CC(=O)N(c3cccc(O)c3)C2)no1` (stereo not drawn), 3.57%. Next, `COc1cc(CN2C[C@@H]3CNC(=O)[C@H](C)[C@@H]3C2)cc(OC)c1`: -9.46%; `CN(Cc1nnc(-c2ccco2)o1)C(C(N)=O)c1cccc(F)c1` (stereo not drawn): 0.238%.

Take `CCn1nc(C)c2nc(C(C)C)nc(NCC(C)C)c21`: the cytotoxicity at 70.5 h is -8.62%. Next, `c1cc(-c2ccc3c(c2)CCC32CCN(c3nncs3)CC2)co1`: -9.51%; `Cc1ccc(C(=O)N2C[C@@H]3CN(c4ncccn4)C[C@@H]3C2)cc1`: -4.94%; `Cc1nnsc1CNC(=O)CSCc1ccccc1Cl`: -7.02%. Next, `N#Cc1cccnc1N1CCC2(CCCN(C3CCOCC3)C2=O)C1` (stereo not drawn): -3.03%; `Cc1cc(N2CCC(N(C)Cc3cc(=O)c(O)co3)CC2)nc(C)n1`: -7%.

Turning to `Cc1nc(N)nc(C)c1CC(=O)NCc1ccc2nonc2c1`, the cytotoxicity at 70.5 h is -9.8%. Next, `CCc1nc(C(=O)N2CC(C(C)C)Nc3ccccc32)c[nH]1` (stereo not drawn): -7.98%; `CCN1CCN(C)C(=O)C12CCN(C(=O)Cc1ccccn1)CC2`: 0.951%; `CCc1cc(NC(=O)c2cccc(OCC(F)(F)F)n2)[nH]n1`: -2.9%. On to `O=C(Nc1cccc(N2CCOCC2)c1)N[C@H](CO)c1ccccc1`, for which the cytotoxicity at 70.5 h is -1.11%. Next, `O=C(NCC1CC1)C1CN(C(=O)Cc2cccs2)CC12CCOCC2` (stereo not drawn): 1.89%; `Cc1ccc(-c2ccc(C(=O)NCCS(N)(=O)=O)c(F)c2)cc1`: -3.69%. Next, `Cc1noc(-c2ccc(N3CCCC(C(=O)O)C3)nc2)n1` (stereo not drawn): -3.67%; `O=C(NC1CC1)c1cc(NC(=O)N2CCOCC2)ccc1Cl`: -15.3%; `CC(=O)N1CCn2c(C(=O)N(C)C)cnc2C1`: -29.5%. The result for `COCCCN1CC2(CCCCN2C(=O)c2ccsc2)CC1=O` (stereo not drawn) reads 8.24%; that for `CC(C)N1CCC[C@H]1C(=O)NCC1CCN(c2cnn(C)c(=O)c2)CC1`, -8.1%; that for `CN(C)Cc1cn(-c2ccccc2C(=O)NCCC2CCCN2C)cn1` (stereo not drawn), 24.5%. On to `c1ncn(CC2CN(Cc3nc(-c4ccsc4)no3)CCO2)n1` (stereo not drawn), for which the cytotoxicity at 70.5 h is -6.98%. As to `CCc1ccc(NS(=O)(=O)CC2=NC(=O)n3cccc3C2=O)cc1`, the cytotoxicity at 70.5 h was -5.39%.

For the compound `COc1ccc(CN2CC[C@@H]3CN(S(C)(=O)=O)CCO[C@@H]3C2)cc1`, the cytotoxicity at 70.5 h was -2.97%. The result for `O=S(=O)(c1ccccc1Cl)N1CCC2(CC1)OCCS2` reads -9.74%; that for `Cc1nn(C)c(C)c1CN1CCN(CC2(O)CCCN(C)C2)CC1` (stereo not drawn), -10.5%. The result for `Cn1ncc(NC(=O)c2noc3c2CCCC3)c1C(N)=O` reads -5.51%. With `CN1CCC(CNC(=O)c2ccc(O)nc2)c2ccccc21` (stereo not drawn), the cytotoxicity at 70.5 h was 1.07%. The result for `COc1ccc2[nH]nc(CN3CCC(C(=O)N4CCCCC4)CC3)c2c1` reads -1.62%; that for `O[C@@H]1C[C@@](CNCc2ccc(F)cc2)(COc2cccnc2)C[C@@H]1O`, 0.0431%.

In the case of `Cc1cnc(N2CC[C@@H]3O[C@@H](COCC(=O)N(C)C)CC[C@@H]32)nc1`, the cytotoxicity at 70.5 h was -99.7%.

Turning to `Cn1ccc(C(=O)NC2CCN(c3ncccn3)CC2)cc1=O`, the cytotoxicity at 70.5 h was -15.3%. The result for `CCC(=O)N(CCC(=O)O)Cc1ccc(F)c(F)c1` reads -7.91%; that for `CC(C)c1ccc(O)c(C(=O)N2CCN(Cc3cscn3)CC2)c1`, -15.1%. As to `CC(c1ccc(Cl)cc1)N1CCN(CCCS(N)(=O)=O)CC1` (stereo not drawn), the cytotoxicity at 70.5 h came out at 35.8%.

Turning to `Cn1cc(N2C[C@@H]3CN(S(=O)(=O)C4CC4)C[C@@H]3C2=O)cn1`, the cytotoxicity at 70.5 h came to 2.74%.

For `CC1(NC(=O)CNC(=O)C(C)(C)C)CCc2ccccc2C1` (stereo not drawn), the cytotoxicity at 70.5 h was -7.61%. The result for `CCC[C@@H]1CN(C(=O)Cc2sc(C)nc2C)C[C@H]1C(=O)O` reads -5.07%. The result for `O=C1CCCN1CCCC(=O)N1CCCC(c2ccn[nH]2)C1` (stereo not drawn) reads -12%; that for `Cc1ccccc1OCCCC(=O)N(C)CCC#N`, -5.57%; that for `CNS(=O)(=O)c1ccc(CNC(=O)NCC2CCC2)cc1`, -8.5%.
